Values of other authors in patent publication US20080020059A1, “COMPOSITIONS AND METHODS FOR TOPICAL TREATMENT OF SKIN INFECTION” (CHIOU CONSULTING, INC., priority 2003, published 2008).

Tested on: acne
Conditions: after 12 weeks of treatment

Structure (SMILES): CC[C@H]1OC(=O)[C@H](C)[C@@H](O[C@H]2C[C@@](C)(OC)[C@@H](O)[C@H](C)O2)[C@H](C)[C@@H](O[C@@H]2O[C@H](C)C[C@H](N(C)C)[C@H]2O)[C@](C)(O)C[C@@H](C)C(=O)[C@H](C)[C@@H](O)[C@]1(C)O [erythromycin]
- patients showing satisfactory responses: about 50%
